Results: paper PMC4136699 (ACS Chemical Biology, 2014)
Where a SMILES comes first, the peptide text is derived from it. The star is where a group is joined. Dansyl = CN(C)c1cccc2c(S(=O)(=O)*)cccc12

Assays:
CaPFTase = test: Continuous fluorescence kinetic assay of dansylated Ds-GCa1a2X peptides; assay type: biochemical, Candida albicans; details: greater with CaPFTase, Table S4
yPFTase = molecular target: T1, yPFTase (Saccharomyces cerevisiae, UniProt P22007+P29703); test: as above; assay type: biochemical; details: greater with yPFTase, Table S4
T1 sequence (P22007 1-431): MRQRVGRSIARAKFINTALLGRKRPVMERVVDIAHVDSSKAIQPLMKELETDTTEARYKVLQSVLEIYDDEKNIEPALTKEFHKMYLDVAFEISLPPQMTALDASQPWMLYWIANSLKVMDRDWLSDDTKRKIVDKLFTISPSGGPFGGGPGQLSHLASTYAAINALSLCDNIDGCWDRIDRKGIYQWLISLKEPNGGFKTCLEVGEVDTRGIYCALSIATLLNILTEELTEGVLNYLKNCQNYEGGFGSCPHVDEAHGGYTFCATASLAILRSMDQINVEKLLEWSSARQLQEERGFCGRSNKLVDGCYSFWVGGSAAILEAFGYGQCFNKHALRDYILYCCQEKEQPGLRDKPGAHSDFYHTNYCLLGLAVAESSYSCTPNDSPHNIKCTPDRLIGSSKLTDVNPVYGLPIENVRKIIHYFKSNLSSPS
T1 sequence (P29703 1-316 partner): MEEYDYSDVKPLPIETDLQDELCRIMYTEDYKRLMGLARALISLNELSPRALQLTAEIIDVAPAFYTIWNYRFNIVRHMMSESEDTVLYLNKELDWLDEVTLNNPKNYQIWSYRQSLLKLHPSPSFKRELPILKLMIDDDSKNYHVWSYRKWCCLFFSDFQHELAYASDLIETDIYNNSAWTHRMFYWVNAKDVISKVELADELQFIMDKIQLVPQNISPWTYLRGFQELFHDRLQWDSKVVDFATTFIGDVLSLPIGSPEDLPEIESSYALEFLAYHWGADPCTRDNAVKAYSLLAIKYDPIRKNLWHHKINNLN

| Compound | kcat/KM of CaPFTase compared with rPFTase (CaPFTase) [fold] | kcat/KM of yPFTase compared with rPFTase (yPFTase) [fold] |
| --- | --- | --- |
| CC(C)[C@H](NC(=O)[C@@H](NC(=O)[C@@H](NC(=O)[C@H](CS)NC(=O)CNS(=O)(=O)c1cccc2c(N(C)C)cccc12)C(C)C)C(C)C)C(=O)O [Ds-GCVVV] (Dansyl-GCVVV-OH) | 6.2 | – |
| Ds-GCVTN | – | 11 |
